In patent US5824533A, “Orpinomyces xylanase proteins and coding sequences” (University of Georgia Research Foundation, Inc., priority 1995, dated 1998):
“And” between values parts separate entries of the source, which are not always exact repeats. Identical values can stand only once. “Also recorded” adds a separate entry of the source.

Test system: Orpinomyces sp. strain PC-2 endoxylanase XynA-1 (purified native enzyme, 29 kDa)
Assay: Effect of reagents on purified endoxylanase activity (residual activity on oat spelt xylan)
Assay type: biochemical
Experimental: Enzyme assays: All enzyme assays were carried out in duplicate and in 50 mM piperazine/HCl buffer at pH 5.5 and 40° C. unless otherwise stated.
a. Xylanase activity was assayed by mixing a 0.2 ml aliquot of diluted enzyme with 0.4 ml buffer containing 1.0% (w/v) oat spelt xylan (Sigma Chemical Co., St. Louis, Mo.), preheated to 40° C. After 15 min at 40° C., the reaction was terminated by the addition of 1.2 ml of 3,5-dinitrosalicylic acid (DNS) (Miller, 1959), followed by 0.2 ml of 2.5N NaOH to dissolve the residual water-insoluble xylan. The reaction tube was then placed in boiling water for 5 min before determining the absorbance at 550 nm (A550 nm). Xylose was used as the standard.
The effects of various metal ions and reagents on xylanase activity were determined in 50 mM piperazine-HCl, pH 5.5. The enzyme and metal ions or reagents (1 and 3 mM) were preincubated at 22° C. for 10 min; residual activities were measured at 40° C.

[1] = reagent 1 mM, preincubated 22° C. 10 min, residual activity at 40° C., 50 mM piperazine-HCl pH 5.5, control without reagent = 100%
[2] = reagent 3 mM, preincubated 22° C. 10 min, residual activity at 40° C., 50 mM piperazine-HCl pH 5.5, control without reagent = 100%
[3] = reagent 1 and 3 mM, 50 mM piperazine-HCl pH 5.5

| Relative activity (%) [1] [%] | Relative activity (%) [2] [%] | SMILES | Effect on xylanase activity (in words) (reagent 1 mM) | Effect on xylanase activity (in words) [3] | Effect on xylanase activity (in words) (pH 5.5) | Relative activity (%) (pH 5.5) |
| --- | --- | --- | --- | --- | --- | --- |
| 0 | 0 | O=C1CCC(=O)N1Br [N-Bromosuccinimide] | total inactivation; also recorded: completely inhibited |  |  |  |
| 85.5 | 63.3 | O=[N+]([O-])c1ccc(O)c(CBr)c1 [2-Hydroxy-5-nitroxyl-5-nitrobenzyl-bromide] |  | inhibitory |  |  |
|  |  | O=C(O)CN(CCN(CC(=O)O)CC(=O)O)CC(=O)O [EDTA] |  |  | do not significantly effect xylanase activity | 96.3% and 93.7% |
| 96.7 | 95.4 | OCCS [β-Mercaptoethanol] |  | do not significantly effect xylanase activity |  |  |

| SMILES | Relative activity (%) [1] [%] | Relative activity (%) [2] [%] | Effect on xylanase activity (in words) (reagent 1 mM) | Effect on xylanase activity (in words) [3] | Effect on xylanase activity (in words) (pH 5.5) | Relative activity (%) (pH 5.5) |
| --- | --- | --- | --- | --- | --- | --- |
| O=C(O)c1cc[c]([Hg+])cc1.[OH-] [Hydroxymercuribenzoate, p-hydroxymercuribenzoate] | 0 | 0 | total inactivation |  |  |  |
